Experimental data as given in patent US20230286946A1, “DIFLUOROMETHYL-PYRIDIN-2-YL TRIAZOLES” (Boehringer Ingelheim International GmbH, priority 2020, published 2023).

Experiments:
[1] = target: T1, human GABAA α5β3γ2s receptor (Homo sapiens, UniProt P18507+P31644); assay: Assay A: in vitro inhibition of 3H-flumazenil binding, HEK cells expressing the human GABAA α5β3γ2s receptor; conditions: read-out: Assay A: GABAA α 5 β 3 γ 2s Ki
T1 sequence (P18507 1-475): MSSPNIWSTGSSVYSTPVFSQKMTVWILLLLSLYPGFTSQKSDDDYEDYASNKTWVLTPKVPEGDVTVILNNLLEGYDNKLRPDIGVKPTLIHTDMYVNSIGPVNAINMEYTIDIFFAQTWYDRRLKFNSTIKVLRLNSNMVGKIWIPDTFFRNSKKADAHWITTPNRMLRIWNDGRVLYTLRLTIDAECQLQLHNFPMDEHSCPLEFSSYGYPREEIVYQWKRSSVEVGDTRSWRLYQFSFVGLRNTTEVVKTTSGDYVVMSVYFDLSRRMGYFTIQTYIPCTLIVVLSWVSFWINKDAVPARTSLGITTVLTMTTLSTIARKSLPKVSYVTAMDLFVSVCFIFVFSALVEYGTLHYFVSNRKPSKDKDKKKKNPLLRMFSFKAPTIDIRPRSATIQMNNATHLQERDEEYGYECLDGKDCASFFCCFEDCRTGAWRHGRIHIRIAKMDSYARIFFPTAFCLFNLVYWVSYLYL
T1 sequence (P31644 1-462): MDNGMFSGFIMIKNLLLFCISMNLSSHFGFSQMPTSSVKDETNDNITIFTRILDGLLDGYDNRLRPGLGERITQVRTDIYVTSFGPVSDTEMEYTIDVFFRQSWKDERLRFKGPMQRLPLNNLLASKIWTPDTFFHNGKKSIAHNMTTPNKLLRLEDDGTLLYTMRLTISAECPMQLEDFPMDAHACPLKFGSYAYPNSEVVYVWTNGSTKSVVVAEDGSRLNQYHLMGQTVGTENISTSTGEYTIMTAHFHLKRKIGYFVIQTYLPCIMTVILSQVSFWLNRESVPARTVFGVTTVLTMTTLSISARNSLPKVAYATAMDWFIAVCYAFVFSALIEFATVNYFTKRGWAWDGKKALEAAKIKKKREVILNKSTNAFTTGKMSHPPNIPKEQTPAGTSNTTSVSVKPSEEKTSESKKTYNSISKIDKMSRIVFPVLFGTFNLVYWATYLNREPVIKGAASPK
Experimental: Cell Cultures and Membrane Preparation
HEK-293 cell lines with stable expression of recombinant human GABAA α5ß3 γ2s receptors (plasmid H46/E9/B10) are seeded in T175 polystyrene flasks or roller bottles (1700 cm^2, Fisher Scientific CCI-431191), and cultured (37° C., 5% CO2) in Dulbecco's Modified Eagle Medium (DMEM) with GlutaMAX™ supplemented with 10% fetal bovine serum and one or both of the following antibiotics: hygromycin B ([…]; γ2 subunit) or G418 (0.5 mg/ml; […]).
When the cultures reach confluency, the DMEM is removed and the cells are washed (10 ml for T175 flasks; 50 ml for roller bottles) once in Dulbecco's Phosphate Buffered Saline (DPBS). Following addition of DPBS to the cultures (10 ml for T175 flasks; 100 ml for roller bottles) for approximately 5 min cells are easily detached from the surface by shaking or tapping the flask gently. The cell suspension is transferred to Falcon tubes and centrifuged at 23,500×g for 10 min at 2° C. The pellet is washed once in 15 ml Tris-citrate buffer (50 mM, pH 7.1) using an Ultra-Turrax homogenizer and centrifuged at 2° C. for 10 min at 27,000×g. The washed pellet is re-suspended in 15 ml Tris-citrate buffer and frozen at −80° C. until the day of the binding experiment.
On the day of the experiment the cell membrane preparation is thawed and centrifuged at 2° C. for 10 min at 27,000×g. The pellet is re-suspended, using an Ultra-Turrax homogenizer in Tris-citrate buffer, to 15-50 µg protein per assay and then used for binding assays.
Non-specific binding is determined using clonazepam ([…]).
All dilutions of test compounds and incubation of assay are performed in glass vials/96-vial plates. […] Compounds are dissolved in 100% DMSO (10 mM stock), diluted in 48% ethanol-water, and tested in triplicate in serial 1:3 or 1:10 dilutions. When screening large numbers of compounds only one concentration of each compound is tested in single wells. Reference compounds are not included routinely, but for each experiment performed total and nonspecific binding is compared to data obtained during validation of the assay.
Binding is either terminated by rapid filtration onto
1) Whatman GF/C glass fibre filters using a Brandel Cell harvester, followed by 5 washes with 1 ml ice-cold buffer or onto 2) UniFilter GF/C glass fibre filter plates using a Tomtec cell harvester, followed by washing with approximately 5 ml ice-cold buffer.
The amount of radioactivity on the filters is determined by conventional liquid scintillation counting using a
1) Tri-Garb™ counter (PerkinElmer Life and Analytical Sciences) for separate large filters or
2) Topcount™ counter (PerkinElmer Life and Analytical Sciences) for 96-well filter plates.
Specific binding is total binding minus non-specific binding.
The IC50 value for a test compound is determined based on the equation: […]
where B is the binding in percentage of total specific binding; C is the concentration of test compound; and n is the Hill coefficient. For screening purposes n is set to 1. The IC50 value is calculated from the concentration response curves by the non-linear regression method using the curve-fitting program GraphPad Prism.
The Ki value for a test compound can be calculated from the IC50 value using the equation by Cheng and Prusoff: […]

[2] = Metabolic stability in human liver microsomes (Human MST); format: in vitro ADME; conditions: pH 7.6, pooled human liver microsomes, 37° C., read-out: Human MST t½
Experimental: Assessment of Metabolic Stability in Human Liver Microsomes (Human MST) The metabolic stability of the compounds according to the invention may be investigated as follows: The metabolic degradation of the test compound is assayed at 37° C. with pooled human liver microsomes. The final incubation volume of 100 μL per time point contains TRIS buffer pH 7.6 at room temperature (0.1 M), MgCl2 (5 mM), microsomal protein (1 mg/mL) and the test compound at a final concentration of 1 μM. Following a short pre-incubation period at 37° C., the reactions are initiated by addition of beta-nicotinamide adenine dinucleotide phosphate, reduced form (NADPH, 1 mM), and terminated by transferring an aliquot into solvent after different time points. After centrifugation (10000 g, 5 min), an aliquot of the supernatant is assayed by LCMS/MS for the amount of parent compound. The half-life (t1/2) is determined by the slope of the semi-logarithmic plot of the concentration-time profile.

Ki [1]: 13 nM
half-life at 1 μM [2]: 101 min
SMILES: Cc1nnn(-c2ccc(C(F)F)cn2)c1COc1ccc(-c2cnn(C)c2C)nn1 [Example 9]
